Consider eight compounds from EP4786486A1, “PEPTIDES FOR TREATING CARDIAC DISEASES” (Universidad Complutense De Madrid, priority 2023, dated 2025).

The half-life is the time needed for the level to fall by half in the phase considered.

In data set [1] the test system is HEK293 cells. As to the kind of experiment: Access to the cell interior of fluorescent peptides, fluorescence microscopy. The data set is classed as cell-based. To be noted: 24 hours, 10 µM, green fluorescent signal.
A short description of data set [2]: Conformational study by circular dichroism (helicity). To be noted: for Helicity in 60:40 H2O/TFE (%) / Helicity in H2O (%): circular dichroism, 10 µM, 5°C. The data set is classed as physicochemical. As to the method: Circular dichroism spectra were recorded in aqueous solution and in a 60:40 H2O:trifluoroethanol (TFE) mixture. The concentration used was 10 µM and the temperature (T) was adjusted to 5°C. Measurements were made between 190 and 250 nm using a 0.1 cm optical pitch cell. The experiments were carried out at a scanning rate of 50 nm/min, a response time of 2 s and a bandwidth of 1 nm. The spectra obtained are the average of 4 sweeps to which the baseline was corrected.
To calculate helicity, the equation [θ]222/[θ]max. was used, where [θ]max = (-44000+250T) ([…]). As a finite length correction value (k), the value of k = 4 was taken, while n refers to the number of residues in the peptides. Table 6. Helicity observed by circular dichroism for the peptides studied.
A general note: CD spectra are sensitive to the conformation of chiral molecules.

Data set [3] in a line: Stability in human blood serum, UPLC-MS. The class given is in vitro ADME. To be noted: 37°C. The method, then: A 1 mM dilution of the peptide in water was prepared and 0.5 ml was taken and mixed with 0.5 ml of human serum. The resulting solution was incubated for 72 hours at 37°C. After 24 hours and 72 hours, 120 µl aliquots were taken and treated with 20 µl trifluoroacetic acid to precipitate the proteins. After 30 minutes at 4°C, the mixture was centrifuged at 13000 g and 4°C. The supernatant, once filtered, was analysed by UPLC-MS using a C18 Bridge column (3.0 mm x 50 mm, 2.5 µm) and a gradient of 15 and 50% CH3CN (0.1% formic acid) in H2O (0.1% formic acid) over 5 minutes.

In data set [4] the target is T1, human Nav1.5 channels (Homo sapiens, UniProt Q14524).
T1 construct: expressed in transfected cells; host or cells: CHO (Chinese hamster ovary) cells
As to the kind of experiment: INa density, whole-cell patch-clamp in CHO cells co-transfected with Nav1.5 and the cDNA encoding the peptide. The data set is classed as cell-based. To be noted: vs. cells transfected only with Nav1.5 channels, various membrane potentials, P<0.05. The method, then: (§1) To analyse the effect of the peptides designed in example 1 on INa and IK1, the cDNA that encodes SEQ ID NO: 3 or SEQ ID NO: 4, described in SEQ ID NO: 5 and 20, respectively, was cloned into a pcDNA3.1^(+)® vector (Invitrogen) for transfection of Chinese hamster ovary (CHO) cells that were in turn transfected with the cDNA that encodes the human Nav1.5 channels (SEQ ID NO: 21). The CHO cells were further co-transfected with the EBO-pcD leu 2 vector (0.5 µg), which encodes the expression of the CD8 surface antigen. The subsequent addition of anti-CD8 antibody, bonded to Dynabeads M450® microspheres, allowed the cells that had been transfected to be identified. […] The currents were recorded at 20-22°C using an Axopatch 200B amplifier, filtered at half the sampling frequency and stored in a computer for further analysis. […] The capacitive current artefacts generated after the application of pulses from 0 mV to +10 mV were recorded at 50 kHz (filtered at 10 kHz) to calculate the capacitance of the cell, the access resistance and the input impedance. […] INa was recorded by applying 50 ms pulses from a holding potential of -120 mV to potentials between -80 and +50 mV in 5 mV increments. […]
For orientation: In patch-clamp work, channel activity is measured electrically.

The test system of data set [5] is human cardiac Nav1.5 channels. As to the kind of experiment: INa by whole-cell patch-clamp in CHO cells incubated with synthetic peptide. The data set is classed as cell-based. The note with it: CHO cells expressing Nav1.5, incubated 24 hours, 10 µM, vs untreated control cells. As to the method: as §1

Where a SMILES comes first, the peptide text is derived from it. The star is where a group is joined. FITC = O=C1OC2(c3ccc(O)cc3Oc3cc(O)ccc32)c2ccc(NC(=S)*)cc21; Palmitoyl = CCCCCCCCCCCCCCCC(=O)*

T1 sequence (Q14524 1-2015 isoform Q14524-2): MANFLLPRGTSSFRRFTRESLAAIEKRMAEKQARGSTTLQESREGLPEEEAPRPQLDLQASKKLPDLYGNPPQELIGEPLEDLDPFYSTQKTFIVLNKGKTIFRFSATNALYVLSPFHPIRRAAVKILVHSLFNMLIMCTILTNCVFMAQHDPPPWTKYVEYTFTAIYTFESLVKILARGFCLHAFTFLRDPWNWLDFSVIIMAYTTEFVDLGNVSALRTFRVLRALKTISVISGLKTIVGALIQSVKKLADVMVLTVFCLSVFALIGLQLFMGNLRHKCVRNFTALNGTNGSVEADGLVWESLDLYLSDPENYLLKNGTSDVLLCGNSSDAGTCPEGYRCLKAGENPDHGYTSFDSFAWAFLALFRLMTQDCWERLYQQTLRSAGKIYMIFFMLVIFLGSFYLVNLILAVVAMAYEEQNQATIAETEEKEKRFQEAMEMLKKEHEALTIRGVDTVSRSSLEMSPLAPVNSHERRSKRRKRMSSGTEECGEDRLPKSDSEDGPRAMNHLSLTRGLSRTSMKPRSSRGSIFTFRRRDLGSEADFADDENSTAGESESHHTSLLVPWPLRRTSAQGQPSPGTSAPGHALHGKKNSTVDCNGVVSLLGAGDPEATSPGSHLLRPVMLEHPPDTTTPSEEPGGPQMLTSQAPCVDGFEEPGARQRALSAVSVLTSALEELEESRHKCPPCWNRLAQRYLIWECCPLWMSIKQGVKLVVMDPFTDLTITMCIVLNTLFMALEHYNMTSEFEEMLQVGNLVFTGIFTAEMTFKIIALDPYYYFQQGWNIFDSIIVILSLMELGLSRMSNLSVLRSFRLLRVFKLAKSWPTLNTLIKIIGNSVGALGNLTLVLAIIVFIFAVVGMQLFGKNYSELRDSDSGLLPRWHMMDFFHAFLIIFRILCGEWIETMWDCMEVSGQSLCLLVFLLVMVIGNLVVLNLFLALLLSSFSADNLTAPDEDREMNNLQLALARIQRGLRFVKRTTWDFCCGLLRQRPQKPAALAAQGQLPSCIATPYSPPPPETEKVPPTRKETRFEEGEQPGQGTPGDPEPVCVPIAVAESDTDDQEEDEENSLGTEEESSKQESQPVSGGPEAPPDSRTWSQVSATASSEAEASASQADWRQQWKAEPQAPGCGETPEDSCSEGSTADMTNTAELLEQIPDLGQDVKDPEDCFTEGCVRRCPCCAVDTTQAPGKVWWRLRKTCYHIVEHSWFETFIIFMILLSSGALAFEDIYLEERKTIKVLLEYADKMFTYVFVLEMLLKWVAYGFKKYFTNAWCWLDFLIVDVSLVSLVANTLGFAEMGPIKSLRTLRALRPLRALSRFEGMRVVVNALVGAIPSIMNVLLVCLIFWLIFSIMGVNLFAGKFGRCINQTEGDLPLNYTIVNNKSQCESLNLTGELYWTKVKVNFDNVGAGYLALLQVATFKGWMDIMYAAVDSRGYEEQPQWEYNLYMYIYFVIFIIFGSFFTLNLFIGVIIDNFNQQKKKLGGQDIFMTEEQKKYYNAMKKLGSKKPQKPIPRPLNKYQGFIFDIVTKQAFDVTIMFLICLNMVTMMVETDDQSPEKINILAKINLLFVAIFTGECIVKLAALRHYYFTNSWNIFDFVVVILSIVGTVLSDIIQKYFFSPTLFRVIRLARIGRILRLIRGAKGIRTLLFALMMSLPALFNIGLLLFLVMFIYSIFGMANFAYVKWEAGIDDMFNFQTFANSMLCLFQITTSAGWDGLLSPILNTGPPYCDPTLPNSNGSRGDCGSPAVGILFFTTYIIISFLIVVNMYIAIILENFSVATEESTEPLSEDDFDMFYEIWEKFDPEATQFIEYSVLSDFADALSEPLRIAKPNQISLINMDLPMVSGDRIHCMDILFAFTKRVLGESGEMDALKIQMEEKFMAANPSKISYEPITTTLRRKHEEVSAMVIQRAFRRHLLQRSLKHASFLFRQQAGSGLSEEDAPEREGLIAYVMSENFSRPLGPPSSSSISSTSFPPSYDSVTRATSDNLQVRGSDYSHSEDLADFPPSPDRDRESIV

For `CC[C@H](C)[C@H](NC(=O)[C@H](C)NC(=O)[C@H](C)NC(=O)[C@H](CC(C)C)NC(=O)[C@H](CO)NC(=O)[C@H](CCC(=O)O)NC(=O)[C@H](CCCNC(=N)N)NC(=O)[C@@H](NC(=O)[C@H](Cc1ccccc1)NC(=O)[C@H](CCCNC(=N)N)NC(C)=O)[C@@H](C)O)C(=O)N[C@@H](CCC(=O)O)C(=O)N[C@@H](CCCCNC(=S)Nc1ccc2c(c1)C(=O)OC21c2ccc(O)cc2Oc2cc(O)ccc21)C(N)=O` [Ac-SEQ ID NO: 23(SF)-NH2, Ac-RFTRESLAAlEK(SF)-NH2] (Ac-RFTRESLAAIEK(FITC)-NH2), the “ability to penetrate into the cell interior” value in data set [1] was “not able to penetrate”. As for `CCCCCCCCCCCCCCCC(=O)N[C@@H](CCCNC(=N)N)C(=O)N[C@@H](Cc1ccccc1)C(=O)N[C@H](C(=O)N[C@@H](CCCNC(=N)N)C(=O)N[C@@H](CCC(=O)O)C(=O)N[C@@H](CO)C(=O)N[C@@H](CC(C)C)C(=O)N[C@@H](C)C(=O)N[C@@H](C)C(=O)N[C@H](C(=O)N[C@@H](CCC(=O)O)C(=O)N[C@@H](CCCCNC(=S)Nc1ccc2c(c1)C(=O)OC21c2ccc(O)cc2Oc2cc(O)ccc21)C(N)=O)[C@@H](C)CC)[C@@H](C)O` [Pal-SEQ ID NO: 23(SF)-NH2, Pal-RFTRESLAAIEK(SF)-NH2] (Palmitoyl-RFTRESLAAIEK(FITC)-NH2), in data set [1], the “ability to penetrate into the cell interior” value is recorded as “good ability to penetrate”. For “Ac-FTRESLAAIEK-NH2 [Ac-SEQ ID NO: 25-NH2, Ac-FTRESLAAIEK-NH2]”, in data set [2], the “Helicity in 60:40 H2O/TFE (%)” value stood at 46.2% and the “Helicity in H2O (%)” value is given as 10.7%. For the same compound, the “increase in helicity in H2O” value in data set [2] (compared with Ac-SEQ ID NO: 3-NH2) was found to be 8%. “Ac-FTRESLAAIEKR-NH2 [Ac-SEQ ID NO: 26-NH2, Ac-FTRESLAAIEKR-NH2]”: the remaining at 24 h, 0.5 mM in data set [3] (human blood serum diluted 50:50 with water, human blood serum/H2O (50:50), after 24 hours of incubation, read-out: peptide remained unchanged) turned out to be 82%. The half-life in data set [3] (human blood serum, estimated taking into account serum concentration of 50%) was 27 h. In addition, in data set [2], the “Helicity in 60:40 H2O/TFE (%)” value was found to be 35.5% and the “Helicity in H2O (%)” value is 10.8%.

Take “Ac-RFTRESLAAIE-NH2 [Ac-SEQ ID NO: 3-NH2, Ac-RFTRESLAAIE-NH2]”: in data set [2], the “Helicity in 60:40 H2O/TFE (%)” value was found to be 32.3% and the “Helicity in H2O (%)” value amounted to 2.7%. Consider “EKRMAEKQARGSTTL (listed as Homo sapiens) [SEQ ID NO: 4, 15-amino acid peptide, amino acids 25-39 of human Nav1.5]”, for which, in data set [4], the “density of INa” value is reported as “did not”. Regarding “Pal-FTRESLAAIEK-NH2 (Palmitoyl-FTRESLAAIEK-NH2; SMILES CCCCCCCCCCCCCCCC(=O)N[C@@H](Cc1ccccc1)C(=O)N[C@H](C(=O)N[C@@H](CCCNC(=N)N)C(=O)N[C@@H](CCC(=O)O)C(=O)N[C@@H](CO)C(=O)N[C@@H](CC(C)C)C(=O)N[C@@H](C)C(=O)N[C@@H](C)C(=O)N[C@H](C(=O)N[C@@H](CCC(=O)O)C(=O)N[C@@H](CCCCN)C(N)=O)[C@@H](C)CC)[C@@H](C)O) [Pal-SEQ ID NO: 25-NH2]”, the INa result in data set [5] is “statistically significantly increase INa”. In the case of “Pal-RFTRESLAAIEK-NH2 (Palmitoyl-RFTRESLAAIEK-NH2; SMILES CCCCCCCCCCCCCCCC(=O)N[C@@H](CCCNC(=N)N)C(=O)N[C@@H](Cc1ccccc1)C(=O)N[C@H](C(=O)N[C@@H](CCCNC(=N)N)C(=O)N[C@@H](CCC(=O)O)C(=O)N[C@@H](CO)C(=O)N[C@@H](CC(C)C)C(=O)N[C@@H](C)C(=O)N[C@@H](C)C(=O)N[C@H](C(=O)N[C@@H](CCC(=O)O)C(=O)N[C@@H](CCCCN)C(N)=O)[C@@H](C)CC)[C@@H](C)O) [Pal-SEQ ID NO: 23-NH2]”, the INa entry in data set [5] is on record as “statistically significantly increase INa”.
